ChEMBL document CHEMBL3994662, “In vivo instability of platensimycin and platencin: Synthesis and biological evaluation of urea- and carbamate-platensimycin” (Bioorg Med Chem, 2017)

How the values were obtained:
Staphylococcus aureus = assay: Antibacterial activity against Staphylococcus aureus ATCC 25923 after 18 hrs by broth dilution method; type: functional; conditions: ATCC 25923, 18 h
Liver [1] = assay: Drug uptake in C57Bl/6 mouse liver at 10 mg/kg, iv administered as single dose measured after 60 mins by LC-MS/MS analysis; type: ADME, organism-based; conditions: in vivo, 1 h
Kidney [2] = assay: In vivo stability in C57Bl/6 mouse kidney assessed as compound hydrolysis at 10 mg/kg, iv administered as single dose measured after 60 mins by LC-MS/MS analysis; type: ADME, organism-based; conditions: 1 h
Kidney [3] = assay: Drug uptake in C57Bl/6 mouse kidney at 10 mg/kg, iv administered as single dose measured after 60 mins by LC-MS/MS analysis; type: ADME, organism-based; conditions: in vivo, 1 h
Plasma [4] = assay: Drug uptake in C57Bl/6 mouse plasma at 10 mg/kg, iv administered as single dose measured after 60 mins by LC-MS/MS analysis; type: ADME, organism-based; conditions: in vivo, 1 h
Micrococcus luteus = assay: Antibacterial activity against Micrococcus luteus ATCC 9431 after 18 hrs by broth dilution method; type: functional; conditions: ATCC 9431, 18 h
[5] = In vivo stability in C57Bl/6 mouse urine assessed as compound hydrolysis at 10 mg/kg, iv administered as single dose measured after 60 mins by LC-MS/MS analysis; type: ADME, organism-based; conditions: 1 h
Plasma [6] = assay: In vivo stability in C57Bl/6 mouse plasma assessed as compound hydrolysis at 10 mg/kg, iv administered as single dose measured after 60 mins by LC-MS/MS analysis; type: ADME, organism-based; conditions: 1 h
Liver [7] = assay: In vivo stability in C57Bl/6 mouse liver assessed as compound hydrolysis at 10 mg/kg, iv administered as single dose measured after 60 mins by LC-MS/MS analysis; type: ADME, organism-based; conditions: 1 h
[8] = Drug level in C57Bl/6 mouse urine at 10 mg/kg, iv administered as single dose measured after 60 mins by LC-MS/MS analysis; type: ADME, organism-based; conditions: mouse, in vivo, 1 h
[9] = Oral bioavailability in C57Bl/6 mouse at 10 mg/kg administered as single dose via gavage by LC-MS/MS analysis; type: ADME, organism-based; conditions: in vivo
[10] = Volume of distribution in C57Bl/6 mouse at 3 mg/kg, iv administered as single dose by LC-MS/MS analysis; type: ADME, organism-based; conditions: in vivo
[11] = In vivo stability in C57Bl/6 mouse adipose tissue assessed as compound hydrolysis at 10 mg/kg, iv administered as single dose measured after 60 mins by LC-MS/MS analysis; type: ADME, organism-based; conditions: 1 h
[12] = Cmax in C57Bl/6 mouse at 10 mg/kg, po administered as single dose via gavage by LC-MS/MS analysis; type: ADME, organism-based; design: dose 10 mg/kg, route oral; conditions: in vivo
[13] = Elimination half life in C57Bl/6 mouse at 10 mg/kg, po administered as single dose via gavage by LC-MS/MS analysis; type: ADME, organism-based; conditions: in vivo, read-out: beta t1/2 (converted)
Brain = assay: In vivo stability in C57Bl/6 mouse brain assessed as compound hydrolysis at 10 mg/kg, iv administered as single dose measured after 60 mins by LC-MS/MS analysis; type: ADME, organism-based; conditions: 1 h
[14] = Ratio of drug level in C57Bl/6 mouse lung to plasma at 10 mg/kg, iv administered as single dose measured after 60 mins by LC-MS/MS analysis; type: ADME, organism-based
[15] = Ratio of drug level in C57Bl/6 mouse kidney to plasma at 10 mg/kg, iv administered as single dose measured after 60 mins by LC-MS/MS analysis; type: ADME, organism-based
Mus musculus [16] = assay: AUC (0 to 8 hrs) in C57Bl/6 mouse at 3 mg/kg, iv administered as single dose by LC-MS/MS analysis; type: ADME, organism-based; design: dose 3 mg/kg, time < 8 hr, route intravenous; conditions: in vivo
[17] = Ratio of drug level in C57Bl/6 mouse liver to plasma at 10 mg/kg, iv administered as single dose measured after 60 mins by LC-MS/MS analysis; type: ADME, organism-based
[18] = Elimination half life in C57Bl/6 mouse at 3 mg/kg, iv administered as single dose by LC-MS/MS analysis; type: ADME, organism-based; conditions: in vivo, read-out: beta t1/2 (converted)
[19] = Drug uptake in C57Bl/6 mouse adipose tissue at 10 mg/kg, iv administered as single dose measured after 60 mins by LC-MS/MS analysis; type: ADME, organism-based; conditions: in vivo, 1 h
Lung [20] = assay: In vivo stability in C57Bl/6 mouse lung assessed as compound hydrolysis at 10 mg/kg, iv administered as single dose measured after 60 mins by LC-MS/MS analysis; type: ADME, organism-based; conditions: 1 h
[21] = Cmax in C57Bl/6 mouse at 3 mg/kg, iv administered as single dose by LC-MS/MS analysis; type: ADME, organism-based; design: dose 3 mg/kg, route intravenous; conditions: in vivo
Mus musculus [22] = assay: AUC (0 to 8 hrs) in C57Bl/6 mouse at 10 mg/kg, po administered as single dose via gavage by LC-MS/MS analysis; type: ADME, organism-based; design: time < 8 hr, dose 10 mg/kg, route oral; conditions: in vivo
[23] = Ratio of drug level in C57Bl/6 mouse muscle to plasma at 10 mg/kg, iv administered as single dose measured after 60 mins by LC-MS/MS analysis; type: ADME, organism-based, Muscle tissue/plasma
[24] = In vivo stability in C57Bl/6 mouse muscle assessed as compound hydrolysis at 10 mg/kg, iv administered as single dose measured after 60 mins by LC-MS/MS analysis; type: ADME, organism-based, Muscle tissue; conditions: 1 h
[25] = Drug uptake in C57Bl/6 mouse muscle at 10 mg/kg, iv administered as single dose measured after 60 mins by LC-MS/MS analysis; type: ADME, organism-based, Muscle tissue; conditions: in vivo, 1 h
Lung [26] = assay: Drug uptake in C57Bl/6 mouse lung at 10 mg/kg, iv administered as single dose measured after 60 mins by LC-MS/MS analysis; type: ADME, organism-based; conditions: in vivo, 1 h
[27] = Observed clearance in C57Bl/6 mouse at 3 mg/kg, iv administered as single dose by LC-MS/MS analysis; type: ADME, organism-based; conditions: in vivo
[28] = Elimination half life in C57Bl/6 mouse at 10 mg/kg, iv administered as single dose by LC-MS/MS analysis; type: ADME, organism-based; conditions: in vivo, read-out: beta t1/2 (converted)
Mus musculus [29] = assay: Cmax in C57Bl/6 mouse assessed as platensimycin ML12 level at 10 mg/kg, iv administered as single dose by LC-MS/MS analysis; type: ADME, organism-based; design: dose 10 mg/kg, route intravenous; conditions: in vivo
[30] = Volume of distribution in C57Bl/6 mouse at 10 mg/kg, iv administered as single dose by LC-MS/MS analysis; type: ADME, organism-based; conditions: in vivo
[31] = Observed clearance in C57Bl/6 mouse at 10 mg/kg, iv administered as single dose by LC-MS/MS analysis; type: ADME, organism-based; conditions: in vivo
Mus musculus [32] = assay: AUC (0 to 8 hrs) in C57Bl/6 mouse at 10 mg/kg, iv administered as single dose by LC-MS/MS analysis; type: ADME, organism-based; design: dose 10 mg/kg, time < 8 hr, route intravenous; conditions: in vivo
Mus musculus [33] = assay: AUC (0 to 8 hrs) in C57Bl/6 mouse assessed as platensimycin ML12 level at 10 mg/kg, iv administered as single dose by LC-MS/MS analysis; type: ADME, organism-based; design: dose 10 mg/kg, time < 8 hr, route intravenous; conditions: in vivo
Mus musculus [34] = assay: Elimination half life in C57Bl/6 mouse assessed as platensimycin ML12 level at 10 mg/kg, iv administered as single dose by LC-MS/MS analysis; type: ADME, organism-based; conditions: in vivo
[35] = Cmax in C57Bl/6 mouse at 10 mg/kg, iv administered as single dose by LC-MS/MS analysis; type: ADME, organism-based; design: dose 10 mg/kg, route intravenous; conditions: in vivo

## C[C@]12C[C@@]34C=CC(=O)[C@@](C)(CCNC(=O)Nc5c(O)ccc(C(=O)O)c5O)[C@@H]3[C@H](C[C@@H]1C4)O2
Staphylococcus aureus
  MIC: > 64 µg/mL
Liver [1]
  Drug uptake: Active
Kidney [2]
  Stability: Stable
Kidney [3]
  Drug uptake: Active
Plasma [4]
  Drug uptake: Active
Micrococcus luteus
  MIC: > 64 µg/mL
[5]
  Stability: Stable
Plasma [6]
  Stability: Stable
Liver [7]
  Stability: Stable
[8]
  Drug uptake: Active

## C[C@]12C[C@@]34C=CC(=O)[C@@](C)(CCNC(=O)Oc5c(O)ccc(C(=O)O)c5O)[C@@H]3[C@H](C[C@@H]1C4)O2
Staphylococcus aureus
  MIC: > 64 µg/mL
Liver [1]
  Drug uptake: Active
Kidney [2]
  Stability: Stable
Kidney [3]
  Drug uptake: Active
Plasma [4]
  Drug uptake: Active
Micrococcus luteus
  MIC: > 64 µg/mL
[5]
  Stability: Stable
Plasma [6]
  Stability: Stable
Liver [7]
  Stability: Stable
[8]
  Drug uptake: Active

## C=C1C[C@@]23C=CC(=O)[C@@](C)(CCC(=O)Nc4c(O)ccc(C(=O)O)c4O)[C@@H]2C[C@@H]1CC3 [PLATENCIN]
[9]
  bioavailability: 10%
[10]
  Vd: 0.46 L/kg
Liver [1]
  Drug uptake: Active
[11]
  Stability: Stable
[12]
  Cmax: 4 µM
Kidney [2]
  Stability: Unstable
Kidney [3]
  Drug uptake: Active
[13]
  half-life: 78 min
Brain
  Stability: Stable
Plasma [4]
  Drug uptake: Active
[14]
  Kp at 1 h: 0.4
[15]
  Kp at 1 h: 1.4
[5]
  Stability: Unstable
Plasma [6]
  Stability: Unstable
Mus musculus [16]
  AUC: 6.8 µM·h
Liver [7]
  Stability: Unstable
[17]
  Kp at 1 h: 3.8
[18]
  half-life: 13.2 min
[19]
  Drug uptake: Not Active
Lung [20]
  Stability: Stable
[21]
  Cmax: 11 µM
Mus musculus [22]
  AUC: 2.3 µM·h
[23]
  Kp at 1 h: 0.1
[24]
  Stability: Stable
[25]
  Drug uptake: Active
Lung [26]
  Drug uptake: Active
[27]
  clearance: 23 mL/min/kg

## C[C@@]1(O)C[C@]23C[C@H]1CC[C@H]2[C@]1(C)CCC(=O)Nc2c(O)ccc(c2O)C(=O)S[C@H]2CC(=O)[C@@](C)(CCC(=O)Nc4c(O)ccc(c4O)C(=O)S[C@H]3CC1=O)[C@@H]1CC[C@@H]3C[C@]21C[C@@]3(C)O
[28]
  half-life: 45.6 min
Mus musculus [29]
  Cmax: 2.3 µM
[30]
  Vd: 0.08 L/kg
[31]
  clearance: 3 mL/min/kg
Mus musculus [32]
  AUC: 71 µM·h
Mus musculus [33]
  AUC: 2.5 µM·h
Mus musculus [34]
  beta t1/2: 108 min
[35]
  Cmax: 150 µM
